The source of these data is ChEMBL document CHEMBL1158841, “Neoglycorandomization and chemoenzymatic glycorandomization: two complementary tools for natural product diversification” (J Nat Prod, 2005).

As usually defined, the kcat is the maximal rate divided by the concentration of active sites. A word on the IC50: it is the concentration that gives 50% inhibition.

A short description of experiment [1]: Activity of AknS in presence of AknT.
For experiment [2], the system named is DU-145. The experiment is described as follows: Cytotoxicity against human DU145 cells after 72 hrs by calcein AM assay. The class given is functional, cell-based. To be noted: DU-145, 72 h, pooled result: one value given for 9 cell lines, strains, targets or settings.

As for `CC[C@@]1(O)C[C@H](O[C@H]2C[C@H](N(C)C)[C@H](O[C@H]3C[C@H](O)[C@H](O[C@H]4CCC(=O)[C@H](C)O4)[C@H](C)O3)[C@H](C)O2)c2c(cc3c(c2O)C(=O)c2c(O)cccc2C3=O)[C@H]1C(=O)OC`, the kcat in experiment [1] came to 0.00367 s⁻¹.
With `C[C@H]1O[C@@H](O[C@H]2[C@@H](O)C[C@H](O[C@H]3[C@@H](O)C[C@H](O[C@H]4CC[C@@]5(C)[C@H](CC[C@@H]6[C@@H]5CC[C@]5(C)[C@@H](C7=CC(=O)OC7)CC[C@]65O)C4)O[C@@H]3C)O[C@@H]2C)C[C@H](O)[C@@H]1O` [DIGITOXIN], in experiment [2], the IC50 is 0.44 µM.
